Results published in patent publication US11147272B2, “Pyridone compounds and agricultural and horticultural fungicides comprising the same as active ingredients” (MITSUI CHEMICALS AGRO, INC., priority 2017, dated 2021).

What was measured:
Magnaporthe grisea = assay: whole plant or invertebrate; type: in vivo; conditions: for Test A control value class: class of control value
Alternaia brassicicola = assay: Test Example C: Alternaria sooty spot on cabbage; type: in vivo
From the text: Seeds of a test plant (cabbage variety: Shikidori) were planted and cultivated until the cotyledons extended.
<Control Value> Control value=100{1−(n/3)}

Plasmopara viticola = assay: Test Example G: Downy mildew on vine; conditions: for Test G control value: 7 to 10 days after inoculation; for Test G control value class: Downy mildew on vine (Neomuscat), 2.5 ml/pot, assessed 7 to 10 days after inoculation
Botrytis cinerea = assay: Test Example B: Gray mold on tomato; conditions: for Test B control value class: class of control value
Phytophthora infestans = assay: whole plant or invertebrate; type: in vivo; conditions: for Test F control value class: class of control value
[1] = system: Blumeria graminis f. sp. hordei; assay: Test Example D: Powdery mildew on barley; conditions: for Test D control value class: class of control value
Puccinia recondita = assay: Test Example E: Brown rust on wheat; type: in vivo
[2] = system: Colletotrichum orbiculare; assay: Test Example H: Anthracnose on cucumber; conditions: for Test H control value: 6 to 10 days after inoculation; for Test H control value class: Anthracnose on cucumber (Sagami Hanjiro), 2.5 ml/pot, assessed 6 to 10 days after inoculation
Protocol: Seeds of a test plant (cucumber variety: Sagami Hanjiro) were planted and cultivated until the first leaf appeared. In the test, the inventive compounds were dissolved into dimethyl sulfoxide-methanol mixture solution (volume ratio: 9/1), and the resultant solutions were diluted with well water to a concentration of 250 ppm to obtain the drug solutions. The drug solutions were sprayed to the test plant (2.5 ml/pot). After the drug solutions dried, a conidial suspension (2-4×10^5 conidia/ml) of Colletotrichum orbiculare was inoculated to the plant by spraying. After the inoculation, the plant was kept in a mist chamber at room temperature of 20 to 23° C. for about 24 hours to promote the onset of disease. The degrees of disease development were investigated 6 to 10 days after the inoculation, and the effectiveness of the drug solutions was evaluated.
In Test Examples described above, the degrees of disease development were evaluated in increments of 0.05 from 0 (as no incidence of disease) to 3 (as the degree of disease development in an untreated plant group). Further, control values were calculated using the following equation based on the degree of disease development.
n=Degree of disease development in each treated group
In the table, H: more than 50% control value, L: 50% or less control value, and nt: not tested.

[3] = 250 ppm drug solution sprayed on test plant
[4] = 250 ppm drug solution sprayed (2.5 ml/pot), grape Neomuscat
[5] = 250 ppm drug solution sprayed (2.5 ml/pot), cucumber Sagami Hanjiro
[6] = Blast on rice, control value class
[7] = Alternaria sooty spot on cabbage, control value class
[8] = Downy mildew on vine, 250 ppm spray
[9] = Gray mold on tomato, control value class
[10] = Late blight on tomato, control value class
[11] = Powdery mildew on barley, control value class
[12] = Brown rust on wheat, control value class
[13] = Anthracnose on cucumber, 250 ppm spray
[14] = Alternaria sooty spot on cabbage, class of control value
[15] = Brown rust on wheat, class of control value

| Structure (SMILES) | Test A control value (Magnaporthe grisea; [6]) | Test C control value (Alternaia brassicicola; [7]) | Test G control value (Plasmopara viticola; [8]) | Test B control value (Botrytis cinerea; [9]) | Test F control value (Phytophthora infestans; [10]) | Test D control value [1, 11] | Test E control value (Puccinia recondita; [12]) | Test H control value [2, 13] | Test A control value class (Magnaporthe grisea; Blast on rice) | Test C control value class (Alternaia brassicicola; [14]) | Test G control value class (Plasmopara viticola; 250 ppm spray) | Test B control value class (Botrytis cinerea; Gray mold on tomato) | Test F control value class (Phytophthora infestans; Late blight on tomato) | Test D control value class ([1]; Powdery mildew on barley) | Test E control value class (Puccinia recondita; [15]) | Test H control value class ([2]; 250 ppm spray) | other results |
| --- | --- | --- | --- | --- | --- | --- | --- | --- | --- | --- | --- | --- | --- | --- | --- | --- | --- |
| CCCC1=C(c2c(F)cc(F)cc2F)N(CCC)C(=O)CC1 [compound 435] | – | – | – | – | – | – | – | – | – | – | – | – | – | – | – | – | Test A control value (Magnaporthe grisea; [3]): L (50% or less control value); Test C control value (Alternaia brassicicola; [3]): H (more than 50% control value); Test G control value (Plasmopara viticola; [4]): L (50% or less control value); Test B control value (Botrytis cinerea; [3]): L (50% or less control value); Test F control value (Phytophthora infestans; [3]): H (more than 50% control value); Test D control value [1, 3]: L (50% or less control value); Test E control value (Puccinia recondita; [3]): L (50% or less control value); Test H control value [2, 5]: L (50% or less control value) |
| CCn1c(-c2c(F)cc(F)cc2F)c(C(OC(C)=O)C2CC2)cc(Cl)c1=O (centres unmarked) [compound 259] | H (more than 50% control value) | H (more than 50% control value) | H (more than 50% control value) | H (more than 50% control value) | L (50% or less control value) | H (more than 50% control value) | H (more than 50% control value) | H (more than 50% control value) | – | – | – | – | – | – | – | – | – |
| CCc1ccc(=O)n(CC)c1-c1ccc(OC)cc1Br [compound 344] | L (50% or less control value) | H (more than 50% control value) | L (50% or less control value) | H (more than 50% control value) | L (50% or less control value) | L (50% or less control value) | H (more than 50% control value) | L (50% or less control value) | – | – | – | – | – | – | – | – | – |
| C=CCOc1ccc(-c2c(CC(C)C)cc(Cl)c(=O)n2CC)c(F)c1 [compound 124] | – | – | – | – | – | – | – | – | H (more than 50% control value) | H (more than 50% control value) | L (50% or less control value) | H (more than 50% control value) | L (50% or less control value) | H (more than 50% control value) | H (more than 50% control value) | H (more than 50% control value) | – |
| CCC(OC)c1cc(Br)c(=O)n(CC)c1-c1c(F)cc(F)cc1F (centres unmarked) [compound 504] | – | – | – | – | – | – | – | – | – | – | – | – | – | – | – | – | Test A control value (Magnaporthe grisea; [3]): H (more than 50% control value); Test C control value (Alternaia brassicicola; [3]): H (more than 50% control value); Test G control value (Plasmopara viticola; [4]): H (more than 50% control value); Test B control value (Botrytis cinerea; [3]): H (more than 50% control value); Test F control value (Phytophthora infestans; [3]): L (50% or less control value); Test D control value [1, 3]: H (more than 50% control value); Test E control value (Puccinia recondita; [3]): H (more than 50% control value); Test H control value [2, 5]: H (more than 50% control value) |
| CCCc1cc(Cl)c(=O)n(CCC)c1-c1c(F)cc(F)cc1F [compound 439] | – | – | – | – | – | – | – | – | – | – | – | – | – | – | – | – | Test A control value (Magnaporthe grisea; [3]): H (more than 50% control value); Test C control value (Alternaia brassicicola; [3]): L (50% or less control value); Test G control value (Plasmopara viticola; [4]): L (50% or less control value); Test B control value (Botrytis cinerea; [3]): L (50% or less control value); Test F control value (Phytophthora infestans; [3]): L (50% or less control value); Test D control value [1, 3]: L (50% or less control value); Test E control value (Puccinia recondita; [3]): L (50% or less control value); Test H control value [2, 5]: H (more than 50% control value) |
| CCn1c(-c2ccc(OC)cc2)c(CC(C)C)cc(Br)c1=O [compound 196] | H (more than 50% control value) | H (more than 50% control value) | L (50% or less control value) | H (more than 50% control value) | L (50% or less control value) | L (50% or less control value) | H (more than 50% control value) | H (more than 50% control value) | – | – | – | – | – | – | – | – | – |
| CCn1c(-c2c(F)cc(F)cc2F)c(CN(C)OC)cc(Cl)c1=O [Compound No. 89, 3-chloro-1-ethyl-5-((methoxy(methyl)amino)methyl)-6-(2,4,6-trifluorophenyl)pyridin-2(1H)-one] | – | – | – | – | – | – | – | – | – | – | – | – | – | – | – | – | pest or weed control at 250 µg/mL (Magnaporthe grisea; Pyricularia oryzae, in Oryza sativa, read-out: Test A control value class): > 50%; pest or weed control at 250 µg/mL (Alternaia brassicicola; Brassica oleracea, topical, Alternaria sooty spot on cabbage, class of control value, read-out: Test C control value class): > 50%; pest or weed control at 250 ppm (Plasmopara viticola; Plasmopara viticola, topical, read-out: Test G control value class): < 50%; pest or weed control at 250 µg/mL (Botrytis cinerea; Botrytis cinerea, in Solanum lycopersicum, topical, read-out: Test B control value class): > 50%; pest or weed control at 250 µg/mL (Phytophthora infestans; Phytophthora infestans, in Solanum lycopersicum, topical, read-out: Test F control value class): < 50%; pest or weed control at 250 µg/mL ([1]; Blumeria graminis, in Hordeum vulgare, topical, read-out: Test D control value class): > 50%; pest or weed control at 250 µg/mL (Puccinia recondita; Puccinia recondita, topical, Brown rust on wheat, class of control value, read-out: Test E control value class): > 50%; pest or weed control at 250 ppm ([2]; Colletotrichum orbiculare, in Cucumis sativus, topical, read-out: Test H control value class): > 50% |
| CCn1c(-c2c(F)cc(F)cc2F)c(CN(C)C)cc(Cl)c1=O [compound 91] | – | – | – | – | – | – | – | – | L (50% or less control value) | L (50% or less control value) | L (50% or less control value) | L (50% or less control value) | L (50% or less control value) | L (50% or less control value) | H (more than 50% control value) | H (more than 50% control value) | – |
| CCn1c(-c2ccc(OCSC)cc2F)c(CC(C)C)cc(Cl)c1=O [compound 128] | – | – | – | – | – | – | – | – | H (more than 50% control value) | H (more than 50% control value) | H (more than 50% control value) | H (more than 50% control value) | L (50% or less control value) | H (more than 50% control value) | H (more than 50% control value) | H (more than 50% control value) | – |
| CCn1c(-c2c(F)cc(F)cc2F)c(CC(C)C)ccc1=O [compound 38] | – | – | – | – | – | – | – | – | H (more than 50% control value) | L (50% or less control value) | L (50% or less control value) | H (more than 50% control value) | L (50% or less control value) | H (more than 50% control value) | H (more than 50% control value) | L (50% or less control value) | – |
| CCCCCCc1cc(Cl)c(=O)n(CC)c1-c1ccc(F)cc1Cl [compound 292] | L (50% or less control value) | H (more than 50% control value) | L (50% or less control value) | H (more than 50% control value) | L (50% or less control value) | H (more than 50% control value) | L (50% or less control value) | L (50% or less control value) | – | – | – | – | – | – | – | – | – |
| CCCCc1ccc(=O)n(CC)c1-c1ccc(F)cc1Cl [compound 208] | H (more than 50% control value) | H (more than 50% control value) | L (50% or less control value) | H (more than 50% control value) | L (50% or less control value) | H (more than 50% control value) | H (more than 50% control value) | L (50% or less control value) | – | – | – | – | – | – | – | – | – |
